PubChem BioAssay AID1963865 (Molecular Pharmacology Branch, DTP, NCI, 2024)

System: KRAS PDC multicell spheroid viability
Assay: Anticancer human tumor 825966-067-R-J1-PDC patient-derived colon carcinoma cell line growth inhibition [KRAS2]
Conditions: for viability, T/C: stronger effect = lower value
Text: Multicellular complex tumor spheroid response to RAS pathway inhibitors in combination with a targeted agents in patient-derived cell lines with oncogenic KRAS variants from multiple cancer types
A high-throughput screen of multi-cell type tumor spheroids was designed to identify active combinations of targeted small molecules and KRAS pathway inhibitors. Complex spheroids include a stromal component modeled by human endothelial cells (HUVEC) and fibroblasts modeled by human mesenchymal stem cells (MSCs). The concentration ranges selected for each drug and investigational agent were based upon clinically achievable concentrations if the clinical Cmax of the agent was known.
Compounds. The drugs and investigational agents: BI-3406 (NSC825286), BAY-293 (NSC824723), batoprotafib (TNO155; NSC825523), sotorasib (AMG 510; NSC818433), MRTX1257 (NSC819558), elimusertib (BAY 1895344; NSC800525), molibresib (GSK525762; NSC774829), temuterkib (LY3214996; NSC803410), venetoclax (NSC766270), alisertib (NSC759677), olaparib (NSC753686), talazoparib (NSC767125), erdafitinib (NSC781556), ipatasertib (NSC767898), cabozantinib (NSC761068), nintedanib (NSC756659), abemaciclib (NSC768073), docetaxel (NSC628503), trametinib (NSC758246), and sapanisertib (NSC764658) were obtained from the National Cancer Institute (NCI) Developmental Therapeutics Program Chemical Repository. The FDA-approved anticancer drug set is available from the Developmental Therapeutics Program. […] The stock solutions were prepared in dimethyl sulfoxide (DMSO, Sigma-Aldrich, St. Louis, MO, cat. D2650) at 800-fold the tested concentration and stored at -70 degrees C prior to their use. All drugs and investigational agents were tested over a range starting from a high concentration at or near the clinical Cmax and decreasing in half-log increments. If the clinical Cmax for an agent had not been determined, the highest concentration tested was 10 microM.
Cell Culture. All cells were maintained in an incubator at 37 degrees C and 5% CO2 with 95% humidity. The PDC lines were cultured according to standard operating procedures established by the NCI PDMR (https://pdmr.cancer.gov/sops/default.htm). Briefly, all PDCs were thawed and cultured in Matrigel-coated flasks prepared with a working solution of 1X Ham's F-12 nutrient mix, without supplementation (Invitrogen, Waltham, MA, cat. 11765054), 100 U/mL penicillin-streptomycin (Invitrogen, cat. 15140122), and 2.5% Matrigel (Corning Inc., Corning, NY, cat. 354248) for the first three passages. All PDCs were cultured in complete DMEM/F-12 media containing advanced DMEM/F-12 (Invitrogen, cat. 12634028), 4.9% defined fetal bovine serum, heat inactivated (HyClone Laboratories Inc., Logan, UT, cat. SH30070.03HI), 389 ng/mL hydrocortisone (Sigma-Aldrich, cat. H4001), 9.7 ng/mL human EGF recombinant protein (Invitrogen, cat. PHG0313), 23.4 microg/mL adenine (Sigma-Aldrich, cat. A2786), 97.3 U/mL penicillin-streptomycin (Invitrogen, cat. 15140122), 1.9 mM L-glutamine (Invitrogen, cat. 25030081), and 9.7 microM Y-27632 dihydrochloride (Tocris Bioscience, Bristol, United Kingdom, cat. 1254). The PDCs were cultured in complete DMEM/F12 media without 9.7 microM Y-27632 dihydrochloride for at least two passages prior to the screen. The established cell line HOP-62 was cultured in RPMI 1640 medium, HEPES (Invitrogen, cat. 22400105) with 10% defined fetal bovine serum (HyClone Laboratories Inc., cat. SH30070.03) and 2 mM L-glutamine (Invitrogen, cat. 25030081). The pooled donor HUVEC were cultured in endothelial cell growth medium 2 (PromoCell, Heidelberg, Germany, cat. C-22011) and the hMSC were cultured in mesenchymal stem cell growth medium 2 (PromoCell, cat. C-28009). For all experiments, HUVEC and hMSC were used at passages </=5, while the malignant cell lines were used at passages </=15. […]

[1] = curve of first compound, second compound 0.1 µM
[2] = curve of first compound, second compound 0.316 µM
[3] = curve of first compound, second compound 1 µM
[4] = curve of first compound, second compound 3.16 µM
[5] = second compound 0.1 µM, first compound 0.0316 µM
[6] = second compound 0.1 µM, first compound 0.1 µM
[7] = second compound 0.1 µM, first compound 0.316 µM
[8] = second compound 0.1 µM, first compound 1 µM
[9] = second compound 0.1 µM, first compound 3.16 µM
[10] = second compound 0.1 µM, first compound 10 µM
[11] = second compound 0.316 µM, first compound 0.0316 µM
[12] = second compound 0.316 µM, first compound 0.1 µM
[13] = second compound 0.316 µM, first compound 0.316 µM
[14] = second compound 0.316 µM, first compound 1 µM
[15] = second compound 0.316 µM, first compound 3.16 µM
[16] = second compound 0.316 µM, first compound 10 µM
[17] = second compound 1 µM, first compound 0.0316 µM
[18] = second compound 1 µM, first compound 0.1 µM
[19] = second compound 1 µM, first compound 0.316 µM
[20] = second compound 1 µM, first compound 1 µM
[21] = second compound 1 µM, first compound 3.16 µM
[22] = second compound 1 µM, first compound 10 µM
[23] = second compound 3.16 µM, first compound 0.0316 µM
[24] = second compound 3.16 µM, first compound 0.1 µM
[25] = second compound 3.16 µM, first compound 0.316 µM
[26] = second compound 3.16 µM, first compound 1 µM
[27] = second compound 3.16 µM, first compound 3.16 µM
[28] = second compound 3.16 µM, first compound 10 µM
[29] = curve of first compound, second compound 10 µM
[30] = second compound 10 µM, first compound 0.0316 µM
[31] = second compound 10 µM, first compound 0.1 µM
[32] = second compound 10 µM, first compound 0.316 µM
[33] = second compound 10 µM, first compound 1 µM
[34] = second compound 10 µM, first compound 3.16 µM
[35] = second compound 10 µM, first compound 10 µM
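Note: spheroids exposed to compounds for 7 days.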
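Throughout, for viability, T/C: 100% = DMSO vehicle control viability.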

Structure (SMILES) | IC50 [1] [µM] | IC50 [2] [µM] | IC50 [3] [µM] | IC50 [4] [µM] | viability, T/C [5] [%] | viability, T/C [6] [%] | viability, T/C [7] [%] | viability, T/C [8] [%] | viability, T/C [9] [%] | viability, T/C [10] [%] | viability, T/C [11] [%] | viability, T/C [12] [%] | viability, T/C [13] [%] | viability, T/C [14] [%] | viability, T/C [15] [%] | viability, T/C [16] [%] | viability, T/C [17] [%] | viability, T/C [18] [%] | viability, T/C [19] [%] | viability, T/C [20] [%] | other results
CC1OCC2(CCN(c3cnc(Sc4ccnc(N)c4Cl)c(N)n3)CC2)C1N (stereo unspecified) + C=CC(=O)N1CCN(c2nc(OCC3CCCN3C)nc3c2CCN(c2cccc4cccc(C)c24)C3)CC1CC#N | 8.78 | 6.86 | 7.18 | 5.79 | 84.6 | 75 | 114 | 83.5 | 89.9 | 44.9 | 94.5 | 83.5 | 90.4 | 107 | 115 | 26.4 | 87.2 | 105 | 97.7 | 97.3 | IC50 (curve of first compound, second compound 0.0316 µM): 8.77 µM; viability, T/C (second compound 0.0316 µM, first compound 0.0316 µM): 105%; viability, T/C (second compound 0.0316 µM, first compound 0.1 µM): 97%; viability, T/C (second compound 0.0316 µM, first compound 0.316 µM): 92.5%; viability, T/C (second compound 0.0316 µM, first compound 1 µM): 82.3%; viability, T/C (second compound 0.0316 µM, first compound 3.16 µM): 106%; viability, T/C (second compound 0.0316 µM, first compound 10 µM): 44%; viability, T/C [21]: 121%; viability, T/C [22]: 29.1%; viability, T/C [23]: 81.4%; viability, T/C [24]: 116%; viability, T/C [25]: 102%; viability, T/C [26]: 110%; viability, T/C [27]: 99%; viability, T/C [28]: 5.73%
CC1OCC2(CCN(c3cnc(Sc4ccnc(N)c4Cl)c(N)n3)CC2)C1N (stereo unspecified) + COc1cc2nc(C)nc(NC(C)c3cc(N)cc(C(F)(F)F)c3)c2cc1OC1CCOC1 | > 10 | 6.76 | 7.2 | 5.48 | 88.2 | 83.7 | 74 | 75.6 | 100 | 58 | 87.4 | 89 | 88 | 95.9 | 95.5 | 28.8 | 89 | 88 | 81.7 | 91.3 | IC50 [29]: 0.557 µM; viability, T/C [21]: 89.4%; viability, T/C [22]: 34.7%; viability, T/C [23]: 93.9%; viability, T/C [24]: 104%; viability, T/C [25]: 101%; viability, T/C [26]: 98.5%; viability, T/C [27]: 91.6%; viability, T/C [28]: 4.35%; viability, T/C [30]: 76.5%; viability, T/C [31]: 68.7%; viability, T/C [32]: 63.1%; viability, T/C [33]: 37.4%; viability, T/C [34]: 8.46%; viability, T/C [35]: 0.53%
CCNC(=O)CC1N=C(c2ccc(Cl)cc2)c2cc(OC)ccc2-n2c(C)nnc21 (stereo unspecified) + C=CC(=O)N1CCN(c2nc(=O)n(-c3c(C)ccnc3C(C)C)c3nc(-c4c(O)cccc4F)c(F)cc23)C(C)C1 | > 10 | > 10 | > 10 | > 10 | 81 | 80.9 | 108 | 111 | 99.5 | 81.8 | 79.6 | 76.6 | 68 | 104 | 85.6 | 85.2 | 80.9 | 91.5 | 102 | 83.3 | IC50 [29]: 1.29 µM; viability, T/C [21]: 83.9%; viability, T/C [22]: 63.6%; viability, T/C [23]: 74.8%; viability, T/C [24]: 82.3%; viability, T/C [25]: 98.3%; viability, T/C [26]: 91.8%; viability, T/C [27]: 50.1%; viability, T/C [28]: 61.5%; viability, T/C [30]: 104%; viability, T/C [31]: 72.5%; viability, T/C [32]: 95.4%; viability, T/C [33]: 54.3%; viability, T/C [34]: 32.4%; viability, T/C [35]: 36.9%
COC(=O)c1ccc2c(C(=Nc3ccc(N(C)C(=O)CN4CCN(C)CC4)cc3)c3ccccc3)c(O)[nH]c2c1 |  |  |  |  |  |  |  |  |  |  |  |  |  |  |  |  |  |  |  |  | viability, T/C (compound 0.0316 µM): 93.7% [middle of 5 runs]; viability, T/C (compound 0.1 µM): 90.7% [middle of 5 runs]; viability, T/C (compound 0.316 µM): 92.2% [middle of 5 runs]; viability, T/C (compound 3.16 µM): 0.53% [middle of 5 runs]; viability, T/C (compound 10 µM): 0.29% [middle of 4 runs]; IC50 (curve of compound): 1.24 µM [middle of 5 runs]
